According to US20140135357A1, “DOSE REGIME FOR CAMPTOTHECIN DERIVATIVES” (Taiwan Liposome Company, Ltd., priority 2012, published 2014):

Assay: Phase I clinical trial: pharmacokinetic analysis of TLC388HCl diastereomers and metabolites after IV infusion
[1] = Day 1, dose group 1.5 mg/m^2 TLC388HCl, Mean (SD)
[2] = Day 1, dose group 3.0 mg/m^2 TLC388HCl, Mean (SD)
[3] = Day 1, dose group 6.0 mg/m^2 TLC388HCl, Mean (SD)
[4] = Day 1, dose group 9.0 mg/m^2 TLC388HCl, Mean (SD)
[5] = Day 1, dose group 20.0 mg/m^2 TLC388HCl, Mean (SD)
[6] = Day 1, dose group 30.0 mg/m^2 TLC388HCl, Mean (SD)
[7] = Day 1, dose group 35.0 mg/m^2 TLC388HCl, Mean (SD)
[8] = Day 1, dose group 40.0 mg/m^2 TLC388HCl, Mean (SD)
[9] = Day 1, dose group 50.0 mg/m^2 TLC388HCl, Mean (SD)
[10] = Day 1, dose group 60.0 mg/m^2 TLC388HCl, Mean (SD)
[11] = Day 8, dose group 1.5 mg/m^2 TLC388HCl, Mean (SD)
[12] = Day 8, dose group 3.0 mg/m^2 TLC388HCl, Mean (SD)
[13] = Day 8, dose group 6.0 mg/m^2 TLC388HCl, Mean (SD)
[14] = Day 8, dose group 9.0 mg/m^2 TLC388HCl, Mean (SD)
[15] = Day 8, dose group 20.0 mg/m^2 TLC388HCl, Mean (SD)
[16] = Day 8, dose group 30.0 mg/m^2 TLC388HCl, Mean (SD)
[17] = Day 8, dose group 35.0 mg/m^2 TLC388HCl, Mean (SD)
[18] = Day 8, dose group 40.0 mg/m^2 TLC388HCl, Mean (SD)
[19] = Day 8, dose group 50.0 mg/m^2 TLC388HCl, Mean (SD)
[20] = Day 8, dose group 60.0 mg/m^2 TLC388HCl, Mean (SD)
[21] = patients treated with 60 mg/m^2 of TLC388HCl (N = 6)

Procedure: A non-randomized phase I clinical trial was conducted at 4 institutions in the US and Taiwan.
Patients were included in this trial if they are over the age of 18, with advanced cancer and the ECOG performance status is 0 or 1. […] Patients were excluded from the study if they have previously received more than 3 regimens of chemotherapy, or if they have received chemotherapy or radiotherapy within 4 weeks of the trial recruitment.
Eligible patients were given the pharmaceutical composition of the present invention, comprising a mixture of TLC388HCl and mPEG2000-DSPE in a molar ratio of 1:0.7 to 1:0.9 (known as Lipotecan®). […] The pharmaceutical composition was administered as a 30-min IV infusion, on days 1, 8, and 15 of a 28-day cycle (i.e. 3 IV infusions per 28-day cycle).
Serum samples were collected from the patients for pharmacokinetic analysis on day 1, day 8 and day 15 of Cycles 1 and 2, at the following times:
Post IV infusion: (Day 1 and 8 of Cycle 1): 33 min; 40 min; 50 min; 1 h; 1 h 30 min; 2 h; 4 h and 8 h. Post IV infusion (Day 15 of Cycle 1 and Day 1, 8, and 15 of Cycle 2): 4 h. Patients were assessed every 8 weeks, after 2 cycles of treatments.
During the 2-cycle study period, the patients were examined regularly for the following outcomes: • Side effect/DLT; • The pK profiles of the (S,S) and (S,R) diastereomers of TLC388HCl, its 3 metabolites (TLC-U1, TLC-U2 and Topotecan) on day 1 and day 8 of the treatment cycle; and • Anti-cancer efficacy.

With CCC1(OC(=O)C(C)ON=C2c3cc([N+](=O)[O-])cc([N+](=O)[O-])c3-c3c2cc([N+](=O)[O-])cc3[N+](=O)[O-])C(=O)OCc2c1cc1n(c2=O)Cc2cc3c(CN(C)C)c(O)ccc3nc2-1.Cl (stereo not drawn) [S,S TLC388HCl] as the molecule, how does the “difference between PK profiles on Day 1 and Day 8” value (Cycle 1) read?
Its value is “no significant difference”.

And the AUC0-t [1]?
Its AUC0-t is 2.190 ng·h/mL.

What about the Cmax [1] of the same molecule?
Its Cmax is 4.492 ng/mL.

And the Tmax [1]?
Its Tmax is 0.606 (0.106) hr.

And the t1/2 [1]?
The t1/2 was 2.792 (3.856) hr.

And the AUC0-t [2]?
Its AUC0-t is 6.136 ng·h/mL.

And the Cmax [2]?
The Cmax was 3.857 ng/mL.

And the Tmax [2]?
The Tmax was 0.933 (0.936) hr.

What about the AUC0-t [3] of the same molecule?
Its AUC0-t is 1.866 ng·h/mL.

And the Cmax [3]?
Its Cmax is 5.763 ng/mL.

And the Tmax [3]?
Its Tmax is 0.467 (0.209) hr.

What about the AUC0-t [4] of the same molecule?
The AUC0-t was 1.141 ng·h/mL.

What about the Cmax [4] of the same molecule?
Its Cmax is 2.985 ng/mL.

What about the Tmax [4] of the same molecule?
The Tmax was 0.429 (0.212) hr.

What about the t1/2 [4] of the same molecule?
Its t1/2 is 0.074 (0.033) hr.

And the AUC0-t [5]?
The AUC0-t was 14.699 ng·h/mL.

What about the Cmax [5] of the same molecule?
The Cmax was 51.193 ng/mL.

And the Tmax [5]?
The Tmax was 0.250 (0.000) hr.

What about the t1/2 [5] of the same molecule?
Its t1/2 is 0.432 (0.260) hr.

And the AUC0-t [6]?
The AUC0-t was 5.227 ng·h/mL.

And the Cmax [6]?
Its Cmax is 18.623 ng/mL.

And the Tmax [6]?
Its Tmax is 0.454 (0.276) hr.

And the t1/2 [6]?
The t1/2 was 0.160 (0.034) hr.

And the AUC0-t [7]?
The AUC0-t was 212.19 ng·h/mL.

And the Cmax [7]?
Its Cmax is 417.03 ng/mL.

What about the Tmax [7] of the same molecule?
The Tmax was 0.679 (0.116) hr.

And the t1/2 [7]?
The t1/2 was 2.221 (0.789) hr.

And the AUC0-t [8]?
Its AUC0-t is 17.287 ng·h/mL.

What about the Cmax [8] of the same molecule?
The Cmax was 47.220 ng/mL.

What about the Tmax [8] of the same molecule?
The Tmax was 0.415 (0.152) hr.

And the t1/2 [8]?
The t1/2 was 0.457 (0.812) hr.

What about the AUC0-t [9] of the same molecule?
Its AUC0-t is 23.967 ng·h/mL.

And the Cmax [9]?
Its Cmax is 76.840 ng/mL.

What about the Tmax [9] of the same molecule?
The Tmax was 0.403 (0.143) hr.

What about the t1/2 [9] of the same molecule?
The t1/2 was 0.218 (0.075) hr.

And the AUC0-t [10]?
Its AUC0-t is 18.196 ng·h/mL.

What about the Cmax [10] of the same molecule?
Its Cmax is 103.16 ng/mL.

And the Tmax [10]?
Its Tmax is 0.357 (0.148) hr.

And the t1/2 [10]?
Its t1/2 is 0.546 (0.353) hr.

And the AUC0-t [11]?
The AUC0-t was 0.608 ng·h/mL.

What about the Cmax [11] of the same molecule?
Its Cmax is 1.297 ng/mL.

What about the Tmax [11] of the same molecule?
Its Tmax is 0.489 (0.215) hr.

And the t1/2 [11]?
The t1/2 was 0.093 h.

And the AUC0-t [12]?
Its AUC0-t is 0.852 ng·h/mL.

And the Cmax [12]?
Its Cmax is 2.902 ng/mL.

And the Tmax [12]?
The Tmax was 0.350 (0.173) hr.

And the AUC0-t [13]?
The AUC0-t was 3.152 ng·h/mL.

What about the Cmax [13] of the same molecule?
Its Cmax is 12.160 ng/mL.

What about the Tmax [13] of the same molecule?
Its Tmax is 0.467 (0.209) hr.

What about the t1/2 [13] of the same molecule?
Its t1/2 is 0.045 h.

What about the AUC0-t [14] of the same molecule?
The AUC0-t was 7.000 ng·h/mL.

What about the Cmax [14] of the same molecule?
The Cmax was 4.776 ng/mL.

And the Tmax [14]?
The Tmax was 2.408 (3.729) hr.

And the t1/2 [14]?
Its t1/2 is 0.195 h.

What about the AUC0-t [15] of the same molecule?
Its AUC0-t is 7.369 ng·h/mL.

What about the Cmax [15] of the same molecule?
The Cmax was 24.533 ng/mL.

And the Tmax [15]?
Its Tmax is 0.328 (0.135) hr.

And the t1/2 [15]?
The t1/2 was 0.509 (0.731) hr.

What about the AUC0-t [16] of the same molecule?
The AUC0-t was 28.454 ng·h/mL.

And the Cmax [16]?
Its Cmax is 58.903 ng/mL.

What about the Tmax [16] of the same molecule?
The Tmax was 0.587 (0.167) hr.

And the t1/2 [16]?
The t1/2 was 0.114 (0.061) hr.

And the AUC0-t [17]?
The AUC0-t was 208.58 ng·h/mL.

What about the Cmax [17] of the same molecule?
The Cmax was 616.50 ng/mL.

What about the Tmax [17] of the same molecule?
The Tmax was 0.621 (0.141) hr.

What about the t1/2 [17] of the same molecule?
Its t1/2 is 4.009 (1.684) hr.

What about the AUC0-t [18] of the same molecule?
The AUC0-t was 58.170 ng·h/mL.

And the Cmax [18]?
The Cmax was 127.39 ng/mL.

What about the Tmax [18] of the same molecule?
Its Tmax is 0.303 (0.113) hr.

And the t1/2 [18]?
The t1/2 was 0.429 (0.687) hr.

And the AUC0-t [19]?
Its AUC0-t is 58.594 ng·h/mL.

And the Cmax [19]?
The Cmax was 150.12 ng/mL.

And the Tmax [19]?
The Tmax was 0.297 (0.104) hr.

And the t1/2 [19]?
The t1/2 was 0.817 (1.200) hr.

And the AUC0-t [20]?
Its AUC0-t is 24.500 ng·h/mL.

What about the Cmax [20] of the same molecule?
The Cmax was 87.780 ng/mL.

And the Tmax [20]?
The Tmax was 0.403 (0.143) hr.

And the t1/2 [20]?
Its t1/2 is 0.971 (0.667) hr.

What about the “Cmax and AUC compared with S,R-TLC388HCl” value (at all dose levels) of the same molecule?
Its value is “higher than those of S,R-TLC388HCl”.

And the “Dose-normalized AUClast” value [21]?
Its value is 1.22 ± 2.87 nM*h/(mg/m^2).

What about the “Dose-normalized Cmax” value [21] of the same molecule?
Its value is 2.60 ± 6.02 nM/(mg/m^2).

What about the Tmax [21] of the same molecule?
Its Tmax is 0.47 ± 0.3 h.

And the t1/2 [21]?
The t1/2 was 0.75 ± 1.18 h.

What about the half-life (plasma, after IV administration of TLC388HCl composition) of the same molecule?
Its half-life is “a few minutes”.
